Results reported in PubChem BioAssay (NCI).
Several values for one entry are separate records, joined by “and”; a condition that tells them apart may be missing. Equal entries are not always repeated.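 Assay format: 96-well plates, 48-hour exposure. At the GI50, growth is halved. TGI marks complete inhibition of growth.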

What was measured:
Experiment in all cases: NCI tumour cell line growth inhibition, 48 h
SNB-75 CNS = system: SNB-75 CNS
DMS 114 small cell lung = system: DMS 114 small cell lung
M19-MEL melanoma = system: M19-MEL melanoma
DLD-1 colon = system: DLD-1 colon
OVCAR-3 ovarian = system: OVCAR-3 ovarian
RXF-631 renal = system: RXF-631 renal
TK-10 renal = system: TK-10 renal
HCC-2998 colon = system: HCC-2998 colon
XF 498 CNS = system: XF 498 CNS
KM20L2 colon = system: KM20L2 colon
SNB-78 CNS = system: SNB-78 CNS
LXFL 529 NSCLC = system: LXFL 529 NSCLC
HOP-18 NSCLC = system: HOP-18 NSCLC
DMS 273 small cell lung = system: DMS 273 small cell lung
SN12K1 renal = system: SN12K1 renal
P388 leukemia = system: P388 leukemia
P388/ADR leukemia = system: P388/ADR leukemia

| Compound | TGI (SNB-75 CNS) [µM] | TGI (DMS 114 small cell lung) [µM] | TGI (M19-MEL melanoma) [µM] | TGI (DLD-1 colon) [µM] | TGI (OVCAR-3 ovarian) [µM] | TGI (RXF-631 renal) [µM] | TGI (TK-10 renal) [µM] | TGI (HCC-2998 colon) [µM] | TGI (XF 498 CNS) [µM] | TGI (KM20L2 colon) [µM] | TGI (SNB-78 CNS) [µM] | TGI (LXFL 529 NSCLC) [µM] | TGI (HOP-18 NSCLC) [µM] | TGI (DMS 273 small cell lung) [µM] | TGI (SN12K1 renal) [µM] | TGI (P388 leukemia) [µM] | GI50 (OVCAR-3 ovarian) | TGI (P388/ADR leukemia) [µM] |
| --- | --- | --- | --- | --- | --- | --- | --- | --- | --- | --- | --- | --- | --- | --- | --- | --- | --- | --- |
| C=C[C@]1(C)CCC2=C(CCC3C2(C)CCC[C@@]3(C)COC(C)=O)C1 (stereo not given in full) | 36.7 | 37.4 | 50.8 | 34.7 | 32.1 | 38.1 | 59 | 31.8 | 34.4 | 33.5 | 36.4 | 32.5 | 70.1 |  |  |  |  |  |
| OCCN1CCN2C=C(C3CCCC4N(CCO)CCN34)CCC21 (stereo not given) | > 100 | 72.5 | > 100 | > 100 | > 100 |  | > 100 | > 100 | > 100 | > 100 | > 100 | > 100 | > 100 | > 100 |  |  |  |  |
| Ic1cc2c(cc1C1SCCCS1)OCO2 | > 100 | > 100 | > 100 | > 100 | > 100 | > 100 | > 100 | > 100 |  | > 100 | > 100 | > 100 | > 100 | > 100 |  |  |  |  |
| CCCCCC/C=C1\CCC(CN2CCOCC2)C1=O (stereo not given) | 42.3 | 33.2 |  | 27.4 | 32.7 |  | 26.4 | 35.3 | 29.9 | 37 | 50.6 | 11.1 | 20 | 32.5 |  |  |  |  |
| Nc1cc(=O)n(-c2ccccc2)c(=S)n1-c1ccccc1 | > 100 | > 100 | > 100 | > 100 | > 100 |  | > 100 | > 100 | > 100 | > 100 | > 100 | > 100 |  | > 100 |  |  |  |  |
| CN1CCN(c2ccc3nc(-c4ccc5nc(-c6ccc(O)cc6)[nH]c5c4)[nH]c3c2)CC1 | 619 | 483 | 283 | 487 | 43.1 |  | 1300 | 1080 | 116 | 1160 | 638 |  | 556 | 158 | 552 | 439 | 13.5 µM and 59.5 µM and 10.1 µM | 725 |
| CCN(CC)Cc1c(/C=C\c2cc(OC)c(OC)c(OC)c2)ccc(OC)c1O | 9.49 | 5.68 | > 100 | > 100 | 6.49 |  | > 100 | 20.4 | 21.5 | 11.9 | > 100 | > 100 | > 100 | > 100 |  |  |  |  |
| CC(=O)OC1COC(N2C(=O)C(=O)c3cc(Br)ccc32)C(OC(C)=O)C1OC(C)=O (stereo not given) | > 100 | > 100 | > 100 | > 100 | > 100 | > 100 | > 100 | > 100 | > 100 | > 100 | > 100 | > 100 | > 100 | > 100 |  |  |  |  |
| CC(=O)NC1C(OCc2ccccc2)OC(COC(=O)CCCCCCCCCCNc2ccc([N+](=O)[O-])c3[nH]c4ccccc4c(=O)c23)C(O)C1OC(C)C(=O)NC(C)C(=O)NC(CCC(N)=O)C(=O)OCc1ccccc1 (stereo not given) | > 100 | > 100 | > 100 | > 100 | > 100 |  | > 100 | > 100 | > 100 | > 100 | > 100 | > 100 | > 100 | > 100 |  |  |  |  |
| Clc1ccc(-c2c(C3=NCCCN3)nnn2-c2ccccc2)cc1 | > 100 | > 100 | > 100 | > 100 | > 100 | > 100 | > 100 | > 100 | > 100 | > 100 | > 100 | > 100 | > 100 | > 100 |  |  |  |  |
| NN1C(=O)C(CCO)S/C1=N/N=C1/SC(CCO)C(=O)N1N (stereo not given) | > 100 | > 100 | > 100 | > 100 | > 100 |  |  | > 100 | > 100 | > 100 | > 100 | > 100 | > 100 |  |  |  |  |  |
| O=C(/C(=C\c1ccc(Cl)cc1)c1ccccc1)c1ccccc1 | > 100 | > 100 |  | > 100 |  |  | > 100 | > 100 | 95.5 |  | > 100 | > 100 | > 100 |  |  |  |  |  |
| COc1ccc(C(=O)C(c2ccc(OCc3ccccc3)cc2)c2ccc(OCc3ccccc3)cc2)cc1 | > 100 | > 100 | > 100 | > 100 | > 100 | > 100 | > 100 | > 100 | > 100 | > 100 | > 100 |  |  | > 100 |  |  |  |  |
